ChEMBL document CHEMBL4177727, “Synthesis and biological evaluation of 1-amino isochromans from 2-bromoethyl benzaldehyde and amines in acid medium” (2018)

tested on: Escherichia coli; test: Antibacterial activity against Escherichia coli MTCC 443 at 1 ug/ml under overnight incubation condition by paper disc method; assay type: functional; conditions: read-out: IZ

Point of comparison: `c1ccc2c(c1)CCOC2Nc1nc2ccccc2s1` (stereo not given), zone of inhibition at 1 µg/mL 2.5 mm. Against it:
- Cc1cc(Br)cnc1NCCc1ccccc1C=O — higher, 3.5 mm
- Ic1ccc(NC2OCCc3ccccc32)nc1 (stereo not given) — higher, 3.5 mm
- Fc1ccc2nc(NC3OCCc4ccccc43)sc2c1 (stereo not given) — higher, 4 mm
- FC(F)(F)c1ccc2nc(NC3OCCc4ccccc43)sc2c1 (stereo not given) — the same, 2.5 mm
- O=[N+]([O-])c1ccc(NC2OCCc3ccccc32)cc1 (stereo not given) — higher, 4.5 mm
- Brc1ccc2nc(NC3OCCc4ccccc43)sc2c1 (stereo not given) — the same, 2.5 mm
- CCOc1ccc2nc(NC3OCCc4ccccc43)sc2c1 (stereo not given) — higher, 6.5 mm
- Fc1nc(NC2OCCc3ccccc32)sc1F (stereo not given) — higher, 3 mm
- Fc1ccc(-c2cnc(NC3OCCc4ccccc43)s2)cc1 (stereo not given) — higher, 6 mm
- Cc1cccc(NC2OCCc3ccccc32)n1 (stereo not given) — higher, 3 mm
- Cc1nc(NC2OCCc3ccccc32)sc1-c1ccccc1 (stereo not given) — the same, 2.5 mm
- COc1cccc2sc(NC3OCCc4ccccc43)nc12 (stereo not given) — higher, 3 mm
- Cc1ccc2nc(NC3OCCc4ccccc43)sc2c1 (stereo not given) — the same, 2.5 mm
- CC1COc2c(N3CCN(C)CC3)c(F)cc3c(=O)c(C(=O)O)cn1c23 (stereo not given) [OFLOXACIN] — higher, 11 mm

tested on: Pseudomonas aeruginosa; test: Antibacterial activity against Pseudomonas aeruginosa MTCC 424 at 1 ug/ml under overnight incubation condition by paper disc method; assay type: functional; conditions: read-out: IZ

Point of comparison: `Brc1ccc2nc(NC3OCCc4ccccc43)sc2c1` (stereo not given), zone of inhibition at 1 µg/mL 5 mm. Against it:
- Cc1cc(Br)cnc1NCCc1ccccc1C=O — the same, 5 mm
- c1ccc2c(c1)CCOC2Nc1nc2ccccc2s1 (stereo not given) — lower, 3 mm
- Ic1ccc(NC2OCCc3ccccc32)nc1 (stereo not given) — lower, 4.5 mm
- Fc1ccc2nc(NC3OCCc4ccccc43)sc2c1 (stereo not given) — lower, 3 mm
- FC(F)(F)c1ccc2nc(NC3OCCc4ccccc43)sc2c1 (stereo not given) — lower, 2.5 mm
- O=[N+]([O-])c1ccc(NC2OCCc3ccccc32)cc1 (stereo not given) — lower, 4 mm
- CCOc1ccc2nc(NC3OCCc4ccccc43)sc2c1 (stereo not given) — the same, 5 mm
- Fc1nc(NC2OCCc3ccccc32)sc1F (stereo not given) — lower, 4 mm
- Fc1ccc(-c2cnc(NC3OCCc4ccccc43)s2)cc1 (stereo not given) — the same, 5 mm
- Cc1cccc(NC2OCCc3ccccc32)n1 (stereo not given) — higher, 6 mm
- Cc1nc(NC2OCCc3ccccc32)sc1-c1ccccc1 (stereo not given) — lower, 3 mm
- COc1cccc2sc(NC3OCCc4ccccc43)nc12 (stereo not given) — lower, 4 mm
- Cc1ccc2nc(NC3OCCc4ccccc43)sc2c1 (stereo not given) — lower, 2.5 mm
- CCn1cc(C(=O)O)c(=O)c2cc(F)c(N3CCNCC3)cc21 [NORFLOXACIN] — higher, 9.5 mm

tested on: Staphylococcus aureus; test: Antibacterial activity against Staphylococcus aureus MTCC 96 at 1 ug/ml under overnight incubation condition by paper disc method; assay type: functional; conditions: read-out: IZ

Point of comparison: `Cc1nc(NC2OCCc3ccccc32)sc1-c1ccccc1` (stereo not given), zone of inhibition at 1 µg/mL 2.5 mm. Against it:
- Cc1cc(Br)cnc1NCCc1ccccc1C=O — higher, 4 mm
- c1ccc2c(c1)CCOC2Nc1nc2ccccc2s1 (stereo not given) — higher, 3 mm
- Ic1ccc(NC2OCCc3ccccc32)nc1 (stereo not given) — higher, 3 mm
- Fc1ccc2nc(NC3OCCc4ccccc43)sc2c1 (stereo not given) — the same, 2.5 mm
- FC(F)(F)c1ccc2nc(NC3OCCc4ccccc43)sc2c1 (stereo not given) — the same, 2.5 mm
- O=[N+]([O-])c1ccc(NC2OCCc3ccccc32)cc1 (stereo not given) — higher, 3 mm
- Brc1ccc2nc(NC3OCCc4ccccc43)sc2c1 (stereo not given) — higher, 5 mm
- CCOc1ccc2nc(NC3OCCc4ccccc43)sc2c1 (stereo not given) — higher, 6 mm
- Fc1nc(NC2OCCc3ccccc32)sc1F (stereo not given) — higher, 3 mm
- Fc1ccc(-c2cnc(NC3OCCc4ccccc43)s2)cc1 (stereo not given) — higher, 3 mm
- Cc1cccc(NC2OCCc3ccccc32)n1 (stereo not given) — higher, 4.5 mm
- COc1cccc2sc(NC3OCCc4ccccc43)nc12 (stereo not given) — the same, 2.5 mm
- Cc1ccc2nc(NC3OCCc4ccccc43)sc2c1 (stereo not given) — the same, 2.5 mm
- CCn1cc(C(=O)O)c(=O)c2cc(F)c(N3CCNCC3)cc21 [NORFLOXACIN] — higher, 7 mm

tested on: Bacillus subtilis; test: Antibacterial activity against Bacillus subtilis MTCC 441 at 1 ug/ml under overnight incubation condition by paper disc method; assay type: functional; conditions: read-out: IZ

Point of comparison: `Fc1ccc(-c2cnc(NC3OCCc4ccccc43)s2)cc1` (stereo not given), zone of inhibition at 1 µg/mL 2.5 mm. Against it:
- Cc1cc(Br)cnc1NCCc1ccccc1C=O — higher, 3 mm
- c1ccc2c(c1)CCOC2Nc1nc2ccccc2s1 (stereo not given) — the same, 2.5 mm
- Ic1ccc(NC2OCCc3ccccc32)nc1 (stereo not given) — higher, 6 mm
- Fc1ccc2nc(NC3OCCc4ccccc43)sc2c1 (stereo not given) — higher, 4.5 mm
- FC(F)(F)c1ccc2nc(NC3OCCc4ccccc43)sc2c1 (stereo not given) — the same, 2.5 mm
- O=[N+]([O-])c1ccc(NC2OCCc3ccccc32)cc1 (stereo not given) — higher, 5 mm
- Brc1ccc2nc(NC3OCCc4ccccc43)sc2c1 (stereo not given) — the same, 2.5 mm
- CCOc1ccc2nc(NC3OCCc4ccccc43)sc2c1 (stereo not given) — higher, 7.5 mm
- Fc1nc(NC2OCCc3ccccc32)sc1F (stereo not given) — higher, 3 mm
- Cc1cccc(NC2OCCc3ccccc32)n1 (stereo not given) — higher, 4 mm
- Cc1nc(NC2OCCc3ccccc32)sc1-c1ccccc1 (stereo not given) — the same, 2.5 mm
- COc1cccc2sc(NC3OCCc4ccccc43)nc12 (stereo not given) — higher, 3 mm
- Cc1ccc2nc(NC3OCCc4ccccc43)sc2c1 (stereo not given) — the same, 2.5 mm
- CC1COc2c(N3CCN(C)CC3)c(F)cc3c(=O)c(C(=O)O)cn1c23 (stereo not given) [OFLOXACIN] — higher, 10 mm
